# Key:
# FPR1 = FPR1 (Homo sapiens, UniProt P21462); test: cell-based; settings: FPR1-expressing RBL-2H3 cell line
# Description: To investigate whether activation of FPR1, which is important in regulating the activity of innate immune cells, is induced by the WKYMVm peptide analogs, changes in calcium ions were measured in RBL-2H3 cell line, a type of mast cell that artificially expressed FPR1. […] On the other hand, an increase in intracellular calcium ions by WKYMVβm (V is a β-amino acid) through activation of FPR1 was not observed.
# FPR2 = FPR2 (Homo sapiens, UniProt P25090); test: cell-based; settings: FPR2-expressing RBL-2H3 cell line
# Description: To investigate whether activation of FPR2 is induced by the WKYMVm peptide analogs, changes in calcium ions were measured in RBL-2H3 cell line that artificially expressed FPR2.
# neutrophils [1] = test: Superoxide anion (ROS) production in neutrophils; type: cell-based
# Description: The effect of superoxide anion production in neutrophils by the peptoid-comprising analogs in which a peptoid residue was substituted for K, Y, and M in the structure of WKYMVm was measured.
# neutrophils [2] = test: Degranulation activity of neutrophils (beta-hexosaminidase activity); type: cell-based
# Description: The degranulation activity of neutrophils by the analogs in which each amino acid in the structure of WKYMVm was substituted with a β-amino acid was compared and analyzed by measuring beta-hexosaminidase activity.
# The degranulation activity of neutrophils by the peptoid-containing analogs in which a peptoid residue was substituted for K, Y, and M in the structure of WKYMVm was measured.
# neutrophils [3] = test: Neutrophil chemotaxis assay using a Boyden chamber; type: cell-based
# Description: To investigate the effect of the WKYMVm peptide analogs on the regulation of immune cell mobility, which a representative function of FPR, a chemotaxis assay was performed using a Boyden chamber.
# To measure the in vitro innate immune activity of four peptides comprising one non-natural β^3-amino acid residue, the effect of enhancing neutrophil mobility was measured.
# [4] = test system: neutrophils isolated from mouse bone marrow; test: Cytokine secretion of neutrophils by ELISA, with or without LPS; type: cell-based; settings: 1 μM
# Description: Neutrophils regulate the activity of other immune cells through the production of various types of cytokines. To investigate the effect of the WKYMVm peptide analogs on regulating cytokine production in neutrophils, […], and 24 hours later, the supernatants were collected and subjected to an enzyme-linked immunosorbent assay (ELISA) to measure the amount of cytokine secretion.
# neutrophils [5] = test system: neutrophils
# FPR2, sequence (P25090 whole entry): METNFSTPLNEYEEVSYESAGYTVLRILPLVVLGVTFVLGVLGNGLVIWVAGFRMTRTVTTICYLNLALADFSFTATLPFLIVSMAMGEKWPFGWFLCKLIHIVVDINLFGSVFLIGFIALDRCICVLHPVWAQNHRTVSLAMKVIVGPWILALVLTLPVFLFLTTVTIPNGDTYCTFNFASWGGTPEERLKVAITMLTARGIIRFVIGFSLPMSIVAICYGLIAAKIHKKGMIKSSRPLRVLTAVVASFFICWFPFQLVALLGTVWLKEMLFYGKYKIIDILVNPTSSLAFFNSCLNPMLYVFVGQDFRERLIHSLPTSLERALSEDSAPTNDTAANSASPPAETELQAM
# FPR1, sequence (P21462 whole entry): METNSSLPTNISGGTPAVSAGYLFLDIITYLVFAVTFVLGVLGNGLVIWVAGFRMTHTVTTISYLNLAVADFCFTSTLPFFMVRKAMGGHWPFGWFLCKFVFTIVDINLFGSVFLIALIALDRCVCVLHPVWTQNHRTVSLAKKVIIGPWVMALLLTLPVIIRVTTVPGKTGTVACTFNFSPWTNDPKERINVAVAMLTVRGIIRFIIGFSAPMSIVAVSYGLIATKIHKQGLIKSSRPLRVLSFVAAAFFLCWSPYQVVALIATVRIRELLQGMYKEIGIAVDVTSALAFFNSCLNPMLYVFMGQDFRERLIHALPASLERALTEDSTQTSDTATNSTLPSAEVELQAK
compound,measurement,setting,value
CSCC[C@H](NC(=O)[C@H](Cc1ccc(O)cc1)NC(=O)[C@H](CCCCN)NC(=O)[C@@H](N)Cc1c[nH]c2ccccc12)C(=O)N[C@H](CC(=O)N[C@H](CCSC)C(N)=O)C(C)C [WKYMVβm],increase in intracellular calcium ions through activation of FPR1 (in words),FPR1,not observed
same,increase in intracellular calcium ions through activation of FPR2 (in words),FPR2,not observed
same,superoxide anion production in neutrophils,neutrophils [1],did not induce superoxide anion production
same,degranulation activity of neutrophils,neutrophils [2],did not induce the degranulation activity of neutrophils
same,"effect of enhancing neutrophil mobility, compared with the WKYMVm peptide",neutrophils [3],weak activity only at high concentrations
same,neutrophil mobility at 1 μM,neutrophils [3]; 1 μM,highly active neutrophil mobility promotion effect was induced
same,neutrophil mobility at a low concentration,neutrophils [3]; low concentration,not promoted
same,effect in regulating the neutrophil activity (LPS-induced cytokines),[4],minimal effect
same,calcium ion-increasing effect in neutrophils,neutrophils [5],not exhibited

# From patent US20250032573A1, “IMMUNITY-ENHANCING PEPTIDE ANALOGS AND USES THEREOF” (RESEARCH & BUSINESS FOUNDATION SUNGKYUNKWAN UNIVERSITY, priority 2023, published 2025)
